Four compounds from ChEMBL document CHEMBL1155294, “Synthesis and evaluation of 6-methyl-3-phenylcoumarins as potent and selective MAO-B inhibitors” (Bioorg Med Chem Lett, 2009) can be followed below.

The species entered for one series is Homo sapiens. Kind of series: Selectivity index, ratio of IC50 for human recombinant MAOA to IC50 for human recombinant MAOB.
Series [1] addresses T1, Amine oxidase [flavin-containing] A (Homo sapiens, UniProt P21397).
T1 sequence (P21397 whole entry): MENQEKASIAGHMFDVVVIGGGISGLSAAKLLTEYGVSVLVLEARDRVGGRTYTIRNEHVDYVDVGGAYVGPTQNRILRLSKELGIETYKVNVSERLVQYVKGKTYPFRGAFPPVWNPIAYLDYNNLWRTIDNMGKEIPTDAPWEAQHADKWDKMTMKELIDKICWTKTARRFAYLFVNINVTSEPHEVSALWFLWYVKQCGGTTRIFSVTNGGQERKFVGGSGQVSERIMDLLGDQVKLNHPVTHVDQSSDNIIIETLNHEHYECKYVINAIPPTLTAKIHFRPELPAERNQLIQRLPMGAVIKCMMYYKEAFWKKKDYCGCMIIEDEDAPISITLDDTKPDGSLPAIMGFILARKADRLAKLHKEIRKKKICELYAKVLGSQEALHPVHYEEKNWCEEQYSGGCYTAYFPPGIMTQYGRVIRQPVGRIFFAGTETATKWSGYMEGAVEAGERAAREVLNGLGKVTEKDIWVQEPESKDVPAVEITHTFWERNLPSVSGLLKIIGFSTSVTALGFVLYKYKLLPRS
Kind of series: Inhibition of human recombinant MAOA expressed in BTI cells at 100 uM. The format is cell-based.

Series [2] addresses T2, Amine oxidase [flavin-containing] B (Homo sapiens, UniProt P27338).
T2 sequence (P27338 whole entry): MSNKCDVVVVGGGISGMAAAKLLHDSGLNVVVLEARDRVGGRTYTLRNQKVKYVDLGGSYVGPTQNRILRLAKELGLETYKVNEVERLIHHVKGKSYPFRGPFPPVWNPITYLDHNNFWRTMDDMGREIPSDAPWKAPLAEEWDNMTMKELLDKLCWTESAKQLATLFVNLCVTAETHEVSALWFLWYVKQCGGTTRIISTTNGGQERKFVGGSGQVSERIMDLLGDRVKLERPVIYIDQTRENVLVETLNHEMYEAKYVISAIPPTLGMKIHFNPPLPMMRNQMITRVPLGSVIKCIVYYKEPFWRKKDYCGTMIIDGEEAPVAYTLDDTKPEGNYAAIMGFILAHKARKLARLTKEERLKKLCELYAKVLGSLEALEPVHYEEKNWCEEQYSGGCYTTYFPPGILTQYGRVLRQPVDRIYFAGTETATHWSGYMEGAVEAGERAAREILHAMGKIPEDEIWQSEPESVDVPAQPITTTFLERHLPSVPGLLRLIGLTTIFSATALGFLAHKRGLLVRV
Kind of series: Inhibition of human recombinant MAOB expressed in BTI cells. It is filed as cell-based.

Series [3] deals with T2, Amine oxidase [flavin-containing] B. Description: Inhibition of human recombinant MAOB expressed in BTI cells at 100 uM. The format is cell-based.

`COc1ccc(-c2cc3cc(C)ccc3oc2=O)cc1`: the Ratio IC50 in the series filed under Homo sapiens was more than 7660. Moreover, the “inhibition (INH)” value in series [1] was “Not Active”.
As for `Cc1ccc2oc(=O)c(-c3ccc(O)cc3)cc2c1`, the “inhibition (INH)” value in series [1] is reported as “Not Active”.
For the compound `COc1cccc(-c2cc3cc(C)ccc3oc2=O)c1`, the IC50 – broadly, the midpoint of a concentration-inhibition curve – in series [2] came to 0.803 nM. Moreover, the Ratio IC50 in the series listed under Homo sapiens is more than 125000. For the same compound, the “inhibition (INH)” value in series [1] was “Not Active”.
In the case of `COc1ccccc1-c1cc2cc(C)ccc2oc1=O`, the “inhibition (INH)” value in series [1] is listed as “Not Active”. In series [3], the IC50 entry is given as “Not Active”.
